This note sets out measurements from patent publication US9617225B2 (VIROSTATICS SRL, priority 2012, dated 2017).

Series [1] has as its system Primary T cells. In words: Cytotoxicity, viability by flow cytometry. In kind it is cell-based. The protocol: Primary T cells are cultured and treated with different concentrations of the test compound. Viability is analysed by measuring through flow cytometry based techniques the percentage of viable cells, compared to untreated control=100%).
On the technique in general: Flow cytometry measures light scatter and fluorescence of single cells or particles in a stream.

The target of series [2] is human CDK9/CyclinT kinase complex (Homo sapiens (Human), UniProt P50750). The series is described as follows: In Vitro CDK9/CyclinT Assay (IMAP fluorescent polarization). In kind it is biochemical. The method, then:
In Vitro CDK9/CyclinT Assay
The activity of the compounds described in the present invention can be determined by measuring the phosphorylation of a fluorescently-labeled peptide by human CDK9/CyclinT kinase complex by fluorescent polarization using a commercially available IMAP Screening Express Assay Kit (Molecular devices).
Test compounds were diluted in 100% DMSO to 5 mM stock concentration, then further dilutions were made in H2O or 100% DMSO to desirable concentrations. Each reaction consisted of 5 nM enzyme: CDK9/CyclinT (Proqinase cat#0371-0345-1), 400 nM TAMRA-Rbtide (synthetic 15-mer peptide derived from human retinoblastoma tumor suppressor protein labeled with TAMRA dye, Genecust Europe), 12 μM ATP (=Kmapp, Sigma-Aldrich) and kinase buffer: 20 mM MOPS pH 7 (Sigma-Aldrich), 1 mM DTT (Sigma-Aldrich), 10 mM MgCl2 (Sigma-Aldrich), 0.01% Tween 20 (Sigma-Aldrich).
For each reaction, 4 or 6 μl containing TAMRA-Rbtide, ATP and kianse buffer were combined with 2 μl diluted compound in H2O or 0.028 μl compound in 100% DMSO. The kinase reaction was started by the addition of 2 μl diluted enzyme. The reaction was allowed to run for 1 hour at room temperature. The reaction was stopped by adding 15 μl IMAP beads (1:400 beads in progressive (100% buffer A) 1× buffer).

Setting [3] is: Table 4, toxic dose 50%, viable cells.

Like-named read-outs stand apart in the source and are kept apart here. Bounds are passed on as bounds.

Sequence of human CDK9/CyclinT kinase complex (P50750 whole entry): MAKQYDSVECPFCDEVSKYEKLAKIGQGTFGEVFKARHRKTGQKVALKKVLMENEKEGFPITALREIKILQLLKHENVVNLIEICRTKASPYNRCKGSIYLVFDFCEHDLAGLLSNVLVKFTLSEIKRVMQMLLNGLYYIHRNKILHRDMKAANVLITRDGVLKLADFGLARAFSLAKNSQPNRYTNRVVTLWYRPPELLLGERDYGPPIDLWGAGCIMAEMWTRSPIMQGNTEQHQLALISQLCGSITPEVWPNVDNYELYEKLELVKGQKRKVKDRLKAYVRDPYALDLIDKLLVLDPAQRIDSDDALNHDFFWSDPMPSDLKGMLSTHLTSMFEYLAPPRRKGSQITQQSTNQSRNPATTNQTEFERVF
Sequence of human CDK9/CyclinT kinase complex (O60563 whole entry partner): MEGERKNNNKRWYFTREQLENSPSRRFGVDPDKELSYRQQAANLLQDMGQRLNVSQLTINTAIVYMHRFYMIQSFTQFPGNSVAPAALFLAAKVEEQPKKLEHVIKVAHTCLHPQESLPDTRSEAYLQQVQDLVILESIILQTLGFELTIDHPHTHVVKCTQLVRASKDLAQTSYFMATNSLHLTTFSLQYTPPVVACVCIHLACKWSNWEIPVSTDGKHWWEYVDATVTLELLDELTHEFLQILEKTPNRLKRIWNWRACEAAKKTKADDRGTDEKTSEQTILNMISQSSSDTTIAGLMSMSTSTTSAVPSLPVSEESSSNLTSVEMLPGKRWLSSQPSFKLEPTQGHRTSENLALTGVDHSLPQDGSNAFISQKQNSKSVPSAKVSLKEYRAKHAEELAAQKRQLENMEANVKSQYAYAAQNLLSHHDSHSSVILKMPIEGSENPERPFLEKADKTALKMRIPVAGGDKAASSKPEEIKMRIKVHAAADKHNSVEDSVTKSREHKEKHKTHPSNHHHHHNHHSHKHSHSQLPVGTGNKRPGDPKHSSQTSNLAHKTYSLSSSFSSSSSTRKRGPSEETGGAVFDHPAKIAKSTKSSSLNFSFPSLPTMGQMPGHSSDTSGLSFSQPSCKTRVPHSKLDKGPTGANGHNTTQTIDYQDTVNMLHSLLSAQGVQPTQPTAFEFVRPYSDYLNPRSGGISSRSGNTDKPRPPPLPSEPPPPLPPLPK

With `COc1ccc(Nc2cc(-c3ccccc3OC)ncn2)cc1CNc1ccccc1` [Example 34, N-(4-Methoxy-3-((phenylamino)methyl)phenyl)-6-(2-methoxyphenyl)pyrimidin-4-amine], the “TD50” value in series [1] was over 5 µM. For the same compound, the IC50 in series [2] was under 10000 nM.
As to `COc1ccc(-c2cc(Nc3ccc(OC)c(N)c3)ncn2)cc1` [Example 66, 4-Methoxy-N^1-[6-(4-methoxy-phenyl)-pyrimidin-4-yl]-benzene-1,3-diamine], in series [1], the “TD50” value is over 10 µM. Also, the IC50 in series [2] was over 10000 nM.
Consider `CCOc1cc(F)ccc1-c1cc(Nc2cc(N)c(OC)c(F)c2)ncn1` [Example 89, N^1-[6-(2-Ethoxy-4-fluoro-phenyl)-pyrimidin-4-yl]-5-fluoro-4-methoxy-benzene-1,3-diamine], for which, in series [1], the “TD50” value was over 20 µM. Also, in series [2] (Table 1), the half-inhibitory concentration (IC50) is under 1000 nM.
With `COc1ccc(Nc2cc(-c3cccc(F)c3OC)ncn2)cc1N` [Example 81, N^1-[6-(3-Fluoro-2-methoxy-phenyl)-pyrimidin-4-yl]-4-methoxy-benzene-1,3-diamine], in series [1], the “TD50” value amounted to 3 µM. In series [2], this compound returned an IC50 of under 10000 nM.
As to `COc1ccccc1-c1cc(Nc2ccc(Cl)c(CN3C(=O)c4ccccc4C3=O)c2)ncn1` [Example 20, 2-(2-Chloro-5-(6-(2-methoxyphenyl)pyrimidin-4-ylamino)benzyl)isoindoline-1,3-dione], the “TD50” value in series [1] (setting [3]) is over 0.5 µM. For the same compound, in series [2], the IC50 is under 10000 nM.
In the case of `CCOc1ccc(Nc2cc(-c3ccc(F)cc3OC)ncn2)cc1N` [Example 105, 4-Ethoxy-N^1-[6-(4-fluoro-2-methoxy-phenyl)-pyrimidin-4-yl]-benzene-1,3-diamine], in series [1], the “TD50” value came out at 7 µM. The same compound had an IC50 in series [2] (Table 1) of under 1000 nM.
For `CCOc1ccc(F)cc1-c1cc(Nc2cc(C(N)=O)c(OC)cc2F)ncn1` [Example 148, 5-[6-(2-Ethoxy-5-fluoro-phenyl)-pyrimidin-4-ylamino]-4-fluoro-2-methoxy-benzamide], in that order: 1 µM and under 10000 nM.
Taken in the same sequence, the figures for `CNC(=O)c1cc(Nc2cc(-c3ccccc3OC)ncn2)ccc1OC` [Example 25, 2-Methoxy-5-(6-(2-methoxyphenyl)pyrimidin-4-ylamino)-N-methylbenzamide] were over 0.5 µM and under 1000 nM.
Turning to `COc1ccc(Nc2cc(-c3ccc(F)cc3OC)ncn2)cc1OC(C)=O` [Example 126, Acetic acid 5-[6-(4-fluoro-2-methoxy-phenyl)-pyrimidin-4-ylamino]-2-methoxy-phenyl ester], the “TD50” value in series [1] (setting [3]) was over 2 µM. The same compound registered an IC50 in series [2] of under 1000 nM.
On to `COc1ccc(Nc2cc(-c3ccccc3OC)ncn2)cc1CNCc1ccccc1` [Example 1, N-(3-((Benzylamino)methyl)-4-methoxyphenyl)-6-(2-methoxyphenyl)pyrimidin-4-amine], for which the “TD50” value in series [1] was determined as 3.5 µM. Moreover, in series [2], the IC50 is under 1000 nM.
`COC(=O)c1ccc(Nc2cc(-c3ccccc3OC)ncn2)cc1OC` [Example 133, 2-Methoxy-4-[6-(2-methoxy-phenyl)-pyrimidin-4-ylamino]-benzoic acid methyl ester]: in series [1], the “TD50” value was over 10 µM. Also, the IC50 in series [2] (Table 1) and in series [2] (Table 5) was under 1000 nM in each case.
Regarding `COc1ccccc1-c1cc(Nc2cc(F)c(OC)c(C(N)=O)c2)ncn1` [Example 137, 3-Fluoro-2-methoxy-5-[6-(2-methoxy-phenyl)-pyrimidin-4-ylamino]-benzamide], in series [1], the “TD50” value is over 2 µM. In series [2] (Table 1), this compound showed a half-inhibitory concentration (IC50) of under 10000 nM.
Turning to `COC(=O)c1cc(Nc2cc(-c3ccccc3OC)ncn2)ccc1O` [Example 21, Methyl 2-hydroxy-5-(6-(2-methoxyphenyl)pyrimidin-4-ylamino)benzoate], the “TD50” value in series [1] is over 0.5 µM. The compound further displayed a concentration for half-maximal inhibition (IC50) in series [2] (Table 1) of under 1000 nM.
With `COc1ccc(Nc2cc(-c3ccccc3OC)ncn2)cc1F` [Example 22, N-(3-Fluoro-4-methoxyphenyl)-6-(2-methoxyphenyl)pyrimidin-4-amine], the “TD50” value in series [1] is over 0.5 µM. The compound further returned a half-maximal inhibitory concentration (IC50) in series [2] (Table 1) of under 1000 nM.
With `COc1ccccc1-c1cc(Nc2ccc(C(N)=O)c(Cl)c2)ncn1` [Example 132, 2-Chloro-4-[6-(2-methoxy-phenyl)-pyrimidin-4-ylamino]-benzamide], in series [1], the “TD50” value was over 10 µM. In addition, the IC50 in series [2] (Table 1) and in series [2] (Table 5) was under 1000 nM throughout.
For the compound `COc1ccc(Nc2cc(-c3ccccc3OC)ncn2)cc1C(=O)NCc1ccccc1` [Example 23, N-Benzyl-2-methoxy-5-(6-(2-methoxyphenyl)pyrimidin-4-ylamino)benzamide], the “TD50” value in series [1] is over 0.5 µM. The compound further had an IC50 in series [2] (Table 1) of under 1000 nM.
For `COc1ccc(Nc2cc(-c3ccccc3OC)ncn2)cc1CO` [Example 24, (2-Methoxy-5-(6-(2-methoxyphenyl)pyrimidin-4-ylamino)phenyl)methanol], in that order: over 0.5 µM and under 1000 nM.
Regarding `CCOc1ccc(Nc2cc(-c3ccc(F)cc3OC)ncn2)cc1O` [Example 114, 2-Ethoxy-5-[6-(4-fluoro-2-methoxy-phenyl)-pyrimidin-4-ylamino]-phenol], the “TD50” value in series [1] is 10 µM. Moreover, the IC50 in series [2] is under 1000 nM.
In the case of `COc1cc(F)ccc1-c1cc(Nc2cc(F)c(OC)c(C(N)=O)c2)ncn1` [Example 138, 3-Fluoro-5-[6-(4-fluoro-2-methoxy-phenyl)-pyrimidin-4-ylamino]-2-methoxy-benzamide], in series [1], the “TD50” value was over 20 µM. The same compound came in with an IC50 in series [2] (Table 1) of under 10000 nM.
For `COc1ccccc1-c1cc(Nc2ccc(N3CCN(C)CC3)c(Cn3cnc4ccccc43)c2)ncn1` [Example 2, N-(3-((1H-Benzo[d]imidazol-1-yl)methyl)-4-(4-methylpiperazin-1-yl)phenyl)-6-(2-methoxyphenyl)pyrimidin-4-amine], in that order: 0.4 µM and under 100 nM.
Regarding `CCOC(=O)c1cc(Nc2cc(-c3ccccc3OC)ncn2)ccc1Cl` [Example 14, Ethyl 2-chloro-5-(6-(2-methoxyphenyl)pyrimidin-4-ylamino)benzoate], in series [1], the “TD50” value was over 0.5 µM. Besides, in series [2], the half-inhibitory concentration (IC50) is under 1000 nM.
In the case of `COc1ccccc1-c1cc(Nc2ccc(F)c(Cn3cnc4ccccc43)c2)ncn1` [Example 40, N-(3-((1H-Benzo[d]imidazol-1-yl)methyl)-4-fluorophenyl)-6-(2-methoxyphenyl)pyrimidin-4-amine], in series [1], the “TD50” value is 0.4 µM. In addition, the half-inhibitory concentration (IC50) in series [2] (Table 1) was under 100 nM.
In the case of `COc1ccccc1-c1cc(Nc2ccc(Cl)c(C(=O)NN)c2)ncn1` [Example 7, 2-Chloro-5-(6-(2-methoxyphenyl)pyrimidin-4-ylamino)benzohydrazide], the “TD50” value in series [1] was over 5 µM. This compound gave an IC50 in series [2] (Table 1) of under 100 nM.
With `COc1ccccc1-c1cc(Nc2cc(N)c(OC)c(F)c2)ncn1` [Example 88, 5-Fluoro-4-methoxy-N^1-[6-(2-methoxy-phenyl)-pyrimidin-4-yl]-benzene-1,3-diamine], the “TD50” value in series [1] is over 20 µM. Besides, in series [2], the IC50 is under 1000 nM.
`COC(=O)c1cc(Nc2cc(-c3ccccc3OC)ncn2)ccc1OC` [Example 30, Methyl 2-methoxy-5-(6-(2-methoxyphenyl)pyrimidin-4-ylamino)benzoate]: the “TD50” value in series [1] was over 0.5 µM. In series [2] (Table 1), this compound had a half-maximal inhibitory concentration (IC50) of under 100 nM.

The term IC50 denotes the midpoint of a concentration-inhibition curve. High values mean a need for much substance, low ones inhibition by little substance.
